This passage reports Activity results from ChEMBL document CHEMBL3627675, “Protective effects of the bioactive natural product N-trans-Caffeoyldopamine on hepatotoxicity induced by isoniazid and rifampicin” (2015).

Activity calls are given as the source filed them. The calls are words filed in the database; no cut-off is given here.

The subject of experiment [1] is Rattus norvegicus. The experiment in a line: Protective activity against isoniazid and rifampicin-induced hepatotoxicity in Wistar rat assessed as reduction of serum ALT level at 2.5 mg/kg, po (reference value: 143.7 +/- 12.5 U). The class given is functional.
Experiment [2] has as its system Rattus norvegicus. As to the kind of experiment: Protective activity against isoniazid and rifampicin-induced hepatotoxicity in Wistar rat assessed as reduction of serum AST level at 2.5 mg/kg, po (reference value: 168.5 +/- 14.7 U). The class given is functional.
Experiment [3] relates to Rattus norvegicus. The experiment in a line: Protective activity against isoniazid and rifampicin-induced hepatotoxicity in Wistar rat assessed as increase of SOD activity at 2.5 mg/kg, po (reference value: 31.4 +/- 8.3 U/mg). Type of experiment: functional.
The subject of experiment [4] is Rattus norvegicus. The experiment in a line: Protective activity against isoniazid and rifampicin-induced hepatotoxicity in Wistar rat assessed as reduction of MDA level at 2.5 mg/kg, po (reference value: 30.5 +/- 7.8 nM/mg). Type of experiment: functional.
Experiment [5] has as its system Rattus norvegicus. The experiment in a line: Protective activity against isoniazid and rifampicin-induced hepatotoxicity in Wistar rat assessed as increase of GSH activity at 2.5 mg/kg, po (reference value: 29.4 +/- 11.4 uM/gram). Type of experiment: functional.
For experiment [6], the species on record is Rattus norvegicus. The experiment in a line: Protective activity against isoniazid and rifampicin-induced hepatotoxicity in Wistar rat by haematoxylin and eosin staining. The class given is functional, organism-based.
The species entered for experiment [7] is Rattus norvegicus. As to the kind of experiment: Protective activity against isoniazid and rifampicin-induced hepatotoxicity in Wistar rat assessed as decrease of CYP2E1 mRNA expression in liver. Type of experiment: functional, organism-based.

Consider `O=C(/C=C/c1ccc(O)c(O)c1)NCCc1ccc(O)c(O)c1`, for which the Activity in experiment [1] was found to be 80.6 U; in experiment [2], 86.4 U; in experiment [3], 57 U/mg; in experiment [4], 14.8 nM/mg; in experiment [5], 49 µmol/g. The result in experiment [6] and in experiment [7] was Active.

Turning to `O=C(O)/C=C/c1ccc(O)c(O)c1` [CAFFEIC ACID], the Activity came out at 102.9 U in experiment [1]; 115.6 U in experiment [2]; 48 U/mg in experiment [3]; 23.5 nM/mg in experiment [4]; 42.9 µmol/g in experiment [5]. Also, the result in experiment [6] and in experiment [7] was Active.
